According to patent US6673940B1, “Compositions and methods relating to cyclic compounds that undergo nucleotide base pair-specific interactions with double-stranded nucleic acids” (California Institute of Technology, priority 1999, dated 2004):

Columns and labels:
[1] = tested on: 5′-AGTACT-3′ site on 229 bp restriction fragment of pJT8; test: Quantitative DNase I footprint titration, 5′-AGTACT-3′ site; format: binding; settings: for equilibrium association constant Ka at 5′-AGTACT-3′: 10 mM Tris•HCl, 10 mM KCl, 10 mM MgCl2, 5 mM CaCl2, pH 7.0, 22° C., match site for (3), single base pair mis-match for (4)
Protocol: (§1) FIGS. 8A and 8B depict the results quantitative DNase I footprint titration experiments with (a) cyclo-(Γ-Im-Py-Py-Py-(R)^H^2^Nγ-Im-Py-Py-Py) (3) and (b) cyclo-(γ-Im-Py-Py-Py(R)^H^2^Nγ-Py-Py-Py-Py) (4) on the 3′-end labeled 229-bp restriction fragment of pJT8. Lane 1, intact DNA control; lane 2, A reaction; lane 3, DNase I standard, lanes 4-13, 5 pM, 10 pM, 20 pM, 50 pM, 100 pM, 1 nM, 2 nM, 5 nM, and 10 nM of the respective polyamide. The 5′-AGTACT-3′ and 5′-AGTATT-3′ match and mis-match sites for each polyamide were analyzed and are shown on the right side of the respective autoradiograms. All reactions contained 20 kcpm of radiolabeled restriction fragment, 10 mM Tris•HCI (pH 7.0), 10 mM KC1, 10 mM MgCl2, and 5 mM CaCl2.
(§2) As controls, the binding affinities and sequence specificities of the Im-Py-Py-Py-β-Dp (1) unlinked 2:1 dimer and a hairpin analog 1m-Py-Py-Py-(R)^H,Nγ-Im-Py-Py-Py-C3-OH (2) were also studied. An EDTA analogue, cyclo-(γ-Im-Py-Py-Py-(R)^EDTA-FE(II)γ-Py-Py-Py-Py-) (4-E•Fe(II)) was constructed to confirm the binding orientation of cyclic polyamide (4) at its 5′-AGTATT-3′ match and 5′-AGTACT-3′ single base pair mismatch site. All polyamides were synthesized by solid phase methods (see Baird, et al., J. Am. Chem. Soc., vol. 118:6141 (1996), and U.S. Ser. No. 08/607,078 for a description of solid phase synthesis methods for non-cyclic polyamides). Polyamide purity and identity was confirmed by H NMR, MALDI-TOF MS, and analytical HPLC. Precise binding site sizes were determined by MPE•Fe(II) footprinting (see Van Dyke, et al., Proc. Natl. Acad. Sci. U.S.A., vol. 79:5470 (1982), and Van Dyke and Dervan, Science, vol. 225:1122 (1984)), and binding orientation and stoichiometry confirmed by affinity cleaving experiments. See Taylor, et al., Tetrahedron, vol.40:457 (1984), and Dervan, P. B., Science, vol. 232:464 (1986). Equilibrium association constants (Ka) of the polyamides for their respective match and mis-match binding sites were determined by quantitative DNase I footprint titration, as described by Brenowitz, et al., Methods Enzymol., vol. 130:132 (1986), Brenowitz, et al., Proc. Natl. Acad. Sci. U.S.A., vol 83:8462 (1986), and Senear, et al., Biochemistry, vol. 25:7344 (1986).
Quantitative DNase I footprint titrations (10 mm Tris•HCI, 10 mM KCl, 10 MM MgCl2 and 5 mM CaCl2 pH 7.0 and 22° C.) were performed to determine the equilibrium association constants (Ka) of Im-Py-Py-Py-β-Dp (1), Im-Py-Py-Py-(R)^H,NγIm-Py-Py-Py-OH (2), cyclo-(γ-Im-Py-Py-Py-(R)^H,Nγ-Im-Py-Py-Py) (3), and cyclo-(γ-Im-Py-Py-Py-(R)^H,Nγ-Py-Py-Py-Py-) (4) for the 6 bp match and mis-match sites. The results for (3) and (4) are depicted in FIG. 8.

[2] = tested on: 5′-TGTTA-3′ dsDNA target sequence; settings: Cho et al. 1995; cited from earlier work
[3] = tested on: 229 base pair DNA restriction fragment from the plasmid pJT8 (5′-AGTATT-3′ and 5′-AGTACT-3′ sites); test: Affinity cleavage experiments; format: binding; settings: 100 nM; 20 mM HEPES pH 7.3, 200 mM NaCl, 1 μM Fe(II), 22° C.
Protocol: FIGS. 6A and 6B show the results of affinity cleaving experiments using cyclo-(γ-Im-Py-Py-Py-(R)^EDTA-Fe(II)γ-Py-Py-Py-Py) (4-E•Fe(II)) on the (a) 3′- and (b) 5′-^32P-labeled 229 bp restriction fragment of pJT8. The match and single mis-match sites 5′-AGTATT-3′ and 5′-AGTACT-3′ are shown on the right side of the autoradiograms. The lanes of each gel are described as follows lane 1, intact DNA (control); lane 2, A reaction; lanes 3-7, 100 pM, 1 nM, 10 nM, and 100 nM, and 1 μM polyamide, respectively. All lanes contain 15 kcpm of either 3′- or 5′-radiolabeled DNA, 20 mM HEPES buffer (pH 7.3), 200 mM NaCl, 50 μg/ml glycogen, 5 mM DTT, 1 μM Fe(II), pH 7.0, and were run at 22° C.
FIGS. 7A-7C illustrate the synthesis of cyclo-(γ-Im-Py-Py-Py(R)^EDTA•Fe(II)γPy-Py-Py-Py) (4-E•Fe(II)) from cyclo-(γ-Im-Py-Py-Py-(R)^H2^Nγ-Py-Py-Py-Py) (4) by: (i) EDTA dianhydride (DMSO/NMP, DIEA, 55° C., 15 min); (ii) 0.1 M NaOH (55° C., 10 min). […] Bar heights are proportional to the relative cleavage intensities at each base pair. Shaded and non-shaded circles denote Im and Py carboxamides, respectively. The boxed Fe denotes the EDTA•Fe(II) cleavage moiety. […]

[4] = tested on: 5′-AGTATT-3′ site on 229 bp restriction fragment of pJT8; test: Quantitative DNase I footprint titration, 5′-AGTATT-3′ site; format: binding; settings: for equilibrium association constant Ka at 5′-AGTATT-3′: 10 mM Tris•HCl, 10 mM KCl, 10 mM MgCl2, 5 mM CaCl2, pH 7.0, 22° C., match site for (4), single base pair mis-match for (3)
Protocol: as §1
as §2, with “130:132 (1986), Brenowitz, et al., Proc. Natl. Acad. Sci. U.S.A., vol 83:8462 (1986), and Senear, et al., Biochemistry, vol. 25:7344 (1986).” left out

[5] = tested on: 229 base pair restriction fragment of pJT8 (5′-AGTACT-3′ and 5′-AGTATT-3′ sites); test: MPE•Fe(II) footprinting; format: binding; settings: 25 mM HEPES pH 7.3, 200 mM NaCl, 22°; for MPE•Fe(II) footprinting: binding at match site: 10 nM polyamide
Protocol: FIG. 5 illustrates the 229 bp restriction fragment with the relative positions of the match and single base pair mis-match sequences indicated for two 8-ring cyclic polyamides, cyclo-(γ-Im-Py-Py-Py-(R)^H2^Nγ-Im-Py-Py-Py) (3) and cyclo-(γ-Im-Py-Py-Py-(R)^H2^Nγ-Py-Py-Py-Py) (4). MPE•Fe(II) protection patterns of 10 nM cyclo-(γ-Im-Py-Py-Py-(R)^H2^Nγ-Im-Py-Py-Py) (3) and 10 nM cyclo-(γ-Im-Py-Py-Py-(R)^H2^Nγ-Py-Py-Py-Py) (4) are shown by the bar graphs. Bar heights are proportional to the relative protection from cleavage at each base pair. Binding sites determined by MPE•Fe(II) footprinting and quantitated by DNase I footprint titrations are boxed. Autoradiograms of MPE•Fe(II) footprinting experiments using cyclo-(γ-Im-Py-Py-Py-(R)^H^2^Nγ-Im-Py-Py-Py) (3) (left) and cyclo-(γ-Im-Py-Py-Py-(R)^H^2^Nγ-Py-Py-Py-Py) (4) (right) on the 3′ ^32P-labeled 229 bp restriction fragment of pJT8. 5′-AGTATT-3′ and 5′-AGTACT-3′ sites are shown adjacent to the auto radiograms. Lane 1, intact control; lane 2, MPE•Fe(II) reaction; lane 3, A reaction standard; lanes 4-8: 100 pM; 1 nM; 10 nM; 100 nM; and […] polyamide, respectively. All lanes contain 15 kcpm of either 3′ or 5′-radiolabeled DNA, 25 mM HEPES buffer (pH 7.3), 200 mM NaCl, […] glycogen, 5 mM DTT, 0.5 mM MPE•Fe(II), and were run at 22° C.
as §2, with “25:7344 (1986). […]” for “25:7344 (1986).”

Row | Substance | increase in dsDNA binding affinity relative to unlinked, dimeric polyamide (1) ([1]; 5′-AGTACT-3′ match site) | equilibrium association constant Ka at 5′-AGTACT-3′ [1] | equilibrium association constant Ka at 5′-AGTATT-3′ [4] | MPE•Fe(II) footprinting: binding at match site [5] | specificity for match sequence versus single base pair mismatch sites [2] | MPE•Fe(II) footprinting: binding at single base pair mismatch site [5] | other results
1 | Im-Py-Py-γ-Py-Py-Py-Dp |  |  |  |  | 20 fold |  | 
2 | cyclo-(Im-Py-Py-γ-Py-Py-Py-γ) |  |  |  |  | 4-17 fold |  | concentration at which the five base pair target 5′-TGTTA-3′ is bound [2]: subnanomolar; higher affinity relative to hairpin analog Im-Py-Py-γ-Py-Py-Py-Dp [2]: 40 fold
3 | cyclo-(γ-Im-Py-Py-Py-(R)^EDTA•Fe(II)γ-Py-Py-Py-Py-) [4-E•Fe(II)] |  |  |  |  |  |  | affinity cleavage pattern at 5′-AGTACT-3′ single base pair mis-match site [3]: minor cleavage loci located 3′ and 5′ adjacent to the single base pair mis-match 5′-AGTACT-3′ site; affinity cleavage pattern at 5′-AGTATT-3′ match site [3]: major cleavage locus proximal to the 3′ side of the 5′-AGTATT-3′ match sequence

Second part, led by results:

Row | increase in dsDNA binding affinity relative to unlinked, dimeric polyamide (1) ([1]; 5′-AGTACT-3′ match site) | equilibrium association constant Ka at 5′-AGTACT-3′ [1] | equilibrium association constant Ka at 5′-AGTATT-3′ [4] | MPE•Fe(II) footprinting: binding at match site [5] | Substance | specificity for match sequence versus single base pair mismatch sites [2] | MPE•Fe(II) footprinting: binding at single base pair mismatch site [5] | other results
4 | 428 fold |  |  |  | Im-Py-Py-Py-(R)^H2Nγ-Im-Py-Py-Py-OH [polyamide 2, reference compound] |  |  | lower affinity than previously described hairpin Im-Py-Py-Py-γ-Im-Py-Py-Py-β-Dp [1]: 4 fold; lower sequence specificity than previously described hairpin Im-Py-Py-Py-γ-Im-Py-Py-Py-β-Dp [1]: 5
5 | 3,600 fold | 7.6e+10 M⁻¹ | 1.3e+09 M⁻¹ | bound to its designated 6 bp match sites | cyclo-(γ-Im-Py-Py-Py-(R)^H2Nγ-Im-Py-Py-Py) [polyamide 3] |  | detected only at much higher polyamide concentrations | affinity enhancement relative to hairpin polyamide (2) ([1]; 5′-AGTACT-3′ match site): 8 fold; specificity for match 5′-AGTACT-3′ over single base pair mis-match 5′-AGTATT-3′ ([1]; ratio of Ka values): 55 fold
6 |  | 4.2e+08 M⁻¹ | 3.1e+09 M⁻¹ | bound to its designated 6 bp match sites | cyclo-(γ-Im-Py-Py-Py-(R)^H2Nγ-Py-Py-Py-Py) [polyamide 4] |  | protected its targeted match site 5′-AGTATT-3′ and the single base pair mismatch site 5′-AGTACT-3′ | preference for match 5′-AGTATT-3′ versus single base pair mis-match 5′-AGTACT-3′ ([4]; ratio of Ka values): 7 fold
